Data from a melting point compilation (Tetko et al.; mined from patent text by program, amines drawn as free bases though some values may be those of a salt).

SMILES	melting point [°C]
COc1c(C(=O)O)nc(-c2ccc(Cl)c(OC)c2F)c(F)c1N	143 to 146
CCOc1ncc(Br)cc1C(=O)O	122 to 124
O=S(=O)(c1ccc(Cl)cc1)N1CCCC1c1ccc(Cl)cc1 (racemic)	159
COc1cc(Nc2nccc(-c3ccc(NCCC4CCCN4C)nc3)n2)cc(OC)c1OC (centres undefined)	176 to 177
COc1ccc(C2=C(CO)c3ccc(OC)cc3CC2)cc1	121
Cc1sc2ncc(C(=O)/C=C/c3ccccc3)n2c1C	189 to 190
CCCCCCCCCCCCCCCCCCOCCC(=O)COCc1ccccc1	33 to 34
CCOC(=O)C1=C(C)NC(CN(C)C)=C(C(=O)OCC)C1c1ccccc1/C=C/C(=O)OC(C)(C)C (centres undefined)	146 to 148
CC(=O)OCCSCn1cnc2c(Cl)ncnc21	82 to 87
Cc1nc2c(O)cc(C(=O)N(C)C)cc2n1COCC[Si](C)(C)C	150 to 151
Nc1ccccc1C(=O)C=Cc1ccncc1	168
CC(C)NC1CN(c2c(F)cc3c(=O)c(C(=O)O)cn(-c4nc(N)c(F)cc4F)c3c2Br)C1	> 203
COCCNC(=O)c1cccc(-c2cccc3nc(Cc4cccc(C(F)(F)F)c4)sc23)c1	101 to 102
COCCn1nc(-c2cc(C(C)(C)C)c(O)c(C(C)(C)C)c2)c2cccnc21	111 to 113
CC1=NCCN1c1cnc2[nH]cc(C(=O)C(C)(C)C)c2n1	235 to 236
Cc1cc(N2C(=O)N(CCCCCCCCCSCCCC(F)(F)C(F)(F)F)C(C)(C)C2=O)ccc1NS(=O)(=O)NC(=O)OC(C)(C)C	122 to 124
Cc1ccc(S(=O)(=O)NC[C@H](F)Cc2ccccc2)cc1	130 to 133
COc1ccc(-c2csc(Nc3cccc(C)n3)n2)cc1OC	264 to 266
C=C1CC2(C)C(=O)CC(O)C2C2CCC3=CC(=O)CCC3C12 (centres undefined)	237
CN1C(=O)CCCc2cc(Nc3ncc(Cl)c(Nc4ccc(N5CCCCC5)cc4C(N)=O)n3)ccc21	295 to 297
CC(C)C1NC(c2ccccc2)=NNC1=O (centres undefined)	164
COc1cccc2c1CC(NC(=O)C(C)C)CC2 (centres undefined)	167 to 168
O=C(CCc1oc(-n2ccnc2)nc1-c1ccc(Cl)cc1)NCCCl	130 to 131
COC(=O)C1=C(C)Nc2ccccc2SC1c1ccc(C)cc1 (centres undefined)	148 to 150
CC1CC(=O)NN=C1c1ccc2c(c1)C(C)(C)CC(=O)N2C (centres undefined)	238 to 241

SMILES	melting point [°C]
C=C(C)COCC(C)C1CC=C2C3=C(CCC21C)C1(C)CCC(O)C(C)(C)C1CC3 (centres undefined)	113 to 115
C(=C1CSCC2=C1N=C1SCCN1C2c1ccccc1)c1ccccc1 (centres undefined)	195 to 196
Cn1c(=O)c2conc2n(C2CCCCC2)c1=O	194 to 197
CC(=O)Nc1c(SC(F)(F)F)c(C#N)nn1-c1c(Cl)cc(C(F)(F)F)cc1Cl	217 to 218
CONC(=O)C(Cc1ccccc1)N(C)C(=O)C1CCCCC1C(=O)O (centres undefined)	168 to 171
CC1(O)CC(C)(C)c2ccc(Oc3ccc([N+](=O)[O-])cc3)cc2O1 (centres undefined)	159 to 160
CC(C)(C)OC(=O)C[C@H](NC(=O)c1cccc(NC(=O)C(Cc2ccc(C(=N)N)cc2)NC(=O)OC(C)(C)C)c1)C(=O)N[C@@H](Cc1cccc2ccccc12)C(=O)O (mixture of isomers)	263 to 265
CNC(=O)NS(=O)(=O)c1ccccc1CCC(F)(F)F	176 to 177
Cc1cc2c(c3c1C(c1ccc(C(C)C)cc1)CO3)CCCC2 (centres undefined)	54 to 55
COc1cc2cc3c(nc2cc1OC)CCc1cc(Cl)ccc1-3	197
CCOC(=O)c1cccn2cc(C(C)(C)C)nc12	72 to 74
CCOc1ccc(C2C(C(=O)c3ccc(C(C)C)cc3)=C(O)C(=O)N2c2ccc(C)nn2)cc1 (centres undefined)	279
CCc1ccccc1OCC(C)NC(=O)C(C#N)C(C)(C)C (centres undefined)	94 to 97
N#CC(=Cc1cc(O)c(O)c(C#N)c1)C(=O)Nc1cccc(Cl)c1	236 to 240
CCOc1ccc(OCc2ccccc2)c(C(=O)OC)n1	45 to 46
COc1ccc(OC)c2c(Nc3cccc(N(C)C)c3)c(C#N)cnc12	103 to 105
COC1=C(c2cccc(C(F)(F)F)c2)C(CCC(=O)O)OC1=O (centres undefined)	132
CCc1cc2c(-c3ccccc3Cl)nc(=O)n(C)c2s1	99
O=c1c2cc(-c3nnn[nH]3)ccc2oc2ncccc12	> 300
Cn1cc(C[C@H]2NC(=O)[C@@H](CCC(=O)O)NC2=O)c2ccccc21	228
O=C1NN(C(=O)Nc2ccc(OCc3ccccc3)cc2)C(c2ccccc2)C1c1ccccc1 (centres undefined)	127 to 130
NNP(=S)(Oc1ccccc1)Oc1ccccc1	59 to 61
O=P(c1ccccc1)(c1ccccc1)c1nc2ccccc2nc1P(=O)(c1ccccc1)c1ccccc1	258 to 272
Cc1cc(C)c(O)c(-c2cc(C(C)C)ccc2C(C)C)c1	179
